Experimental findings from PubChem BioAssay AID651866 (The Scripps Research Institute Molecular Screening Center, 2012) are described below.

Usually kinact/KI stands for the maximal inactivation rate divided by the concentration that gives half of it.

SMILES strings stand for the structures.

The assay addresses Protein-arginine deiminase type-3 (Homo sapiens) (UniProt Q9ULW8). The assay can be described thus: PubChem AID 651866. To be noted: recombinant PAD3, citrulline colorimetric, time-dependent inactivation; hits give high values.

Protein-arginine deiminase type-3 (Homo sapiens), sequence (Q9ULW8 whole entry, looked up): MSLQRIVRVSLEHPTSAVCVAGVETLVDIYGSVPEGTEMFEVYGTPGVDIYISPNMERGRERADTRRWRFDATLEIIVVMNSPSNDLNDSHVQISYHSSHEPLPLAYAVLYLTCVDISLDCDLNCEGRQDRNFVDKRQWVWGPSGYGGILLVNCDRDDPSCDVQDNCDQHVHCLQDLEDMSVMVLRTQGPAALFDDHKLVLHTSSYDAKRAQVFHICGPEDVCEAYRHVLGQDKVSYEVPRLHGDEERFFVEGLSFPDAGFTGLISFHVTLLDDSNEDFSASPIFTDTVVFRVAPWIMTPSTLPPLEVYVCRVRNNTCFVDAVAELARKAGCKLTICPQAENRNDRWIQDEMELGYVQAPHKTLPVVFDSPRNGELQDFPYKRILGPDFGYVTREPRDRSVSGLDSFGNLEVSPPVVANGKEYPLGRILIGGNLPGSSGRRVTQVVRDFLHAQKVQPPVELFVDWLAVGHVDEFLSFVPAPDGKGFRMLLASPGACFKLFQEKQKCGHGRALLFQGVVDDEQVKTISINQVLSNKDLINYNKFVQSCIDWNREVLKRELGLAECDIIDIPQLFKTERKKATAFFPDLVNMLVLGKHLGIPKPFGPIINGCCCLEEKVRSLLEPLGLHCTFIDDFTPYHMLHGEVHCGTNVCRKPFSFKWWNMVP

`NC1=CC(=O)c2ccc(-c3cccc(C(=O)O)n3)nc2C1=O`: the kinact/KI is 31.7 M⁻¹ s⁻¹.
